| melting point | SMILES |
| --- | --- |
| 74 °C | CC(=O)CCc1ccc2c(c1)N(C(=O)c1ccccc1)C(C)CC2 (stereo not drawn) |
| 228 to 230 °C | C/C(=N/NC(N)=S)C(=O)Nc1ccc(Br)cc1 |
| 60.5 °C | Cc1ccc(C=O)c(O)c1 |
| 330 °C | O=c1c(O)c(-c2ccc(O)c(O)c2)oc2cc(O)ccc12 |
| 130 °C | O=C(O)CNC(=O)c1ccc([N+](=O)[O-])cc1 |
| 107 °C | CC(=O)c1cn(C)c2ccccc12 |
| 70 to 72 °C | COc1cccc(OCc2ccccc2)c1C#N |
| 109 to 112 °C | O=Cc1ccccc1OCc1c(Cl)cccc1Cl |
| 173 °C | CCOC(=O)c1nn(-c2ccc(C)cc2)c(C)c1C(=O)c1noc(-c2cccc3ccccc23)c1S(=O)(=O)c1ccccc1 |
| 227 °C | O=C1c2ccc(O)cc2OC(c2ccc(O)c(O)c2)C1O (stereo not drawn) |
| 137 °C | C=CC[C@H](NC(=O)OCC1c2ccccc2-c2ccccc21)C(=O)O |
| 141 to 142 °C | CC(=O)Nc1cc(N)ccc1C |
| 44 °C | CO[C@](C(=O)O)(c1ccccc1)C(F)(F)F |
| 226 °C | CCCc1ccc(-c2ccc(C(=O)O)cc2)cc1 |
| 55 to 56 °C | CCC(O)c1ccc(-c2ccccc2F)cc1 (stereo not drawn) |
| 231 to 233 °C | CSc1nc2[nH]c(=S)n(Cc3ccccc3)c(=O)c2n1C |
| 295 °C | Cn1c(=O)c(C2=NNC(=O)C2=C2c3ccccc3-c3ccccc32)c(O)c2ccccc21 |
| 165 to 166 °C | Cc1ccc(S(=O)(=O)OC2CCC3(C)C(CCC4C5CC(=O)CC5(C)CCC43)C2)cc1 (stereo not drawn) |
| 132 °C | CC(=O)CC(=O)Nc1ccc(Cl)cc1 |
| 201 to 203 °C | c1ccc(-c2cc3c(ccc4nonc43)nn2)cc1 |

| melting point | SMILES |
| --- | --- |
| 233 to 235 °C | O=C(O)c1cc2cnccc2nc1C(F)(F)F |
| 95 °C | Brc1ccc2ccc3cccc4ccc1c2c34 |
| 192 °C | CCOC(=O)c1cc2c(=O)oc3ccccc3c2nc1N |
| 110 to 111 °C | O=C(/C=C/C(=O)c1ccccc1)c1ccccc1 |
| 68 °C | O=C(NO)OCc1ccccc1 |
| 159 °C | Cc1ccc(-n2c(-c3cccnc3)noc2=S)cc1 |
| 158 to 160 °C | CC1(C)c2ccccc2N(Cc2ccccc2)C12C=Cc1cc([N+](=O)[O-])ccc1O2 (stereo not drawn) |
| 250 °C | CC12CCC(C1(C)C)C(CCCc1ccccc1)(C1(CCCc3ccccc3)C(=O)C3(C)CCC1C3(C)C)C2=O (stereo not drawn) |
| 187 to 188 °C | O=C(O)c1ccc(-c2ccco2)s1 |
| 191 to 194 °C | O=C(O)c1ccc(O)cc1C(=O)O |
| 152 °C | Cc1cc(C)c(C(=O)O)cc1C |
| 211 to 212 °C | O=C(O)c1ccnc(N2CCCC2)c1 |
| 205 °C | O=C(O)c1cc(O)ccc1F |
| 143 °C | CC1(C)C(C(=O)OC(C#N)c2cccc(Oc3ccccc3)c2)C1C(Br)C(Br)(Br)Br (stereo not drawn) |
| 125 °C | ON(c1ccccc1)C(Br)C(Br)c1ccccc1 (stereo not drawn) |
| -70 °C | CCCC(C)c1ccccc1 (stereo not drawn) |
| -49.7 °C | C=Cc1ccc(CC)cc1 |
| 240 °C | Nc1cccc(C(=O)O)c1O |
| 274 to 276 °C | CC(=O)Nc1ccc(-c2cc(C(=O)O)c3ccccc3n2)cc1 |
| 111 °C | Cc1c(-c2ccccc2)c2ccccc2n1C |

| melting point | SMILES |
| --- | --- |
| 113 °C | CCOc1ccc(-c2nnc3sc(-c4ccc(Cl)cc4)nn23)cc1 |
| 74 to 75 °C | CCOC(=O)c1c(NC(=O)CN(CC)CC)sc2c1CCCC2 |
| 51 to 54 °C | OCc1ccc(-c2cccs2)s1 |
| 100 to 101 °C | CCOC(=O)c1c(NC(=O)CN2CCCCC2)sc2c1CCCC2 |
| 146 °C | CC(C)CCOc1ccc(NC(=S)Nc2ccc(OCCC(C)C)cc2)cc1 |
| 138 °C | COc1cc(C(=O)NS(=O)(=O)c2ccccc2C)ccc1Cc1cn(C)c2ccc(NC(=O)OC3CCCC3)cc12 |
| 199 °C | O=S(=O)(O)c1ccc2ccc(S(=O)(=O)O)cc2c1 |
| 119 to 123 °C | O=C(c1ccccc1)N(O)c1ccccc1 |
| 83 °C | OCCN(CCO)CCc1ccc(COc2ccccc2)cc1 |
| 65 to 68 °C | CC(C)(C)OC(=O)N[C@@H](CCC(=O)OCc1ccccc1)C(=O)O |
| 224 °C | O=C1c2cccc(O)c2C(=O)c2c(O)cc(CO)cc21 |
| 132 to 136 °C | CSCC[C@H](NC(=O)OCC1c2ccccc2-c2ccccc21)C(=O)O |
| 140 to 144 °C | CCOc1ccc(C(=O)C=CC(=O)O)cc1 |
| 150 °C | O=C(O)c1c(Br)cccc1Br |
| 150 °C | O=C(Cl)c1nc2ccccc2s1 |
| 223 to 225 °C | O=C(O)CSc1ccnc2cc(Cl)ccc12 |
| 91 °C | O=C(CBr)c1cccc(C(=O)CBr)c1 |
| 55 °C | c1cc(CCCc2ccncc2)ccn1 |

Further lines, the compound ahead of its results:

| SMILES | melting point |
| --- | --- |
| Cc1ccc(F)c(O)c1Cl | 49 °C |
| Cn1nc(-c2cccs2)cc1CCl | 96 to 97 °C |
| NCCNc1ccc([N+](=O)[O-])cn1 | 126 to 128 °C |
| CCCCCCCCCCCC(=O)CCCC | 37 °C |
| O=S(=O)(Oc1ccc(Cl)cc1)c1ccc(Cl)cc1 | 86.5 °C |
| C=COC(=O)CC | -80 °C |
| COC(=O)c1cc(OCC(F)(F)F)ccc1OCC(F)(F)F | 40 to 41 °C |
| Cc1ccc[nH]1 | -35.6 °C |
| CCCCCCCCCCCCCCCCCCCCCC1CCCC1 | 42 °C |
| CC=CCCl | -65 °C |
| CC(C)(O)C#N | -19 °C |
| N#CCc1ccc(OC(F)(F)F)cc1 | 29 °C |
| C=C(C)CCCCCCCCCCCC | -15 °C |
| O=[N+]([O-])c1ccc(-c2nnc(S)s2)o1 | 175 to 177 °C |
| Cc1nc(C(C)(C)C)sc1C(=O)O | 156 °C |
| C(#CP(c1ccccc1)c1ccccc1)P(c1ccccc1)c1ccccc1 | 86 °C |
| COc1c(Cl)cccc1Cl | 10 to 11 °C |
| CSc1ccc(O)cc1C | 56 °C |
| N#Cc1cnc(Br)nc1N | 250 °C |
| O=c1[nH]ncc(Cl)c1Cl | 202 °C |
| CCOC(=O)c1sc(N)c(C(=O)OCC)c1C | 115 °C |
| C=CC(=O)Nc1ccc2c(c1)OCCOCCOCCOCCOCCO2 | 108 to 112 °C |
| NNc1ccc(S(=O)(=O)O)cc1 | 286 °C |
| CCCCCCCCCCCCN1CCCCCC1=O | -7 °C |

| SMILES | melting point |
| --- | --- |
| Cc1ccnc(N)c1[N+](=O)[O-] | 136 to 141 °C |
| C#CCOc1cc(-n2nc3n(c2=O)CCCC3)c(Cl)cc1Cl | 168 °C |
| O=Cc1[nH]ncc1Br | 80 to 82 °C |
| CC(C)C(NC(=O)C(C)(C)Br)C(C)C | 80 to 82 °C |
| CCCCC(C#N)(Cn1cncn1)c1ccc(Cl)cc1 (stereo not drawn) | 70.9 °C |
| Cc1cc(C)n2nc(N)c(/N=N/c3cccnc3)c2n1 | 245 °C |
| COC(=O)Nc1cccc(OC(=O)Nc2cccc(C)c2)c1 | 143 °C |
| Cc1cccc(NN=C2C(=O)N(C)C(=O)N(C)C2=O)c1 | 228 °C |
| CC(C)(O)C(N)C(=O)O (racemic) | 200 to 202 °C |
| C[C@]12CCC(=O)C=C1C(=O)C[C@@H]1[C@@H]2CC[C@]2(C)C(=O)CC[C@@H]12 | 222 °C |
| COC(=O)c1sccc1OC | 62 °C |
| O=C(O)C1(C2=CCCCC2)CCCCC1 | 79 °C |
| O=C=NC1CCC(N=C=O)CC1 (stereo not drawn) | 59 to 64 °C |
| Clc1cc2c(oc3c(Cl)c(Cl)c(Cl)c(Cl)c32)c(Cl)c1Cl | 233 °C |
| CSc1nc(=O)n2ccccc2n1 | 150 to 151 °C |
| CC1OC(=O)C2CC3CCCCC3C(C=CC3CCCC(C)N3C)C12 (single isomer, unassigned; (+)) | 130 to 136 °C |
| O=S(=O)(Cl)c1cc(S(=O)(=O)Cl)c(Cl)s1 | 79 to 84 °C |
| CCCCCCCCCCN(CCCCCCCCCC)CCCCCCCCCC | -5 to -3 °C |
| Cc1nonc1C | -7 °C |
| CCCCCCC(N)C(=O)O (stereo not drawn) | 270 °C |
| CN1C2CCC1CC(O)C2 (stereo not drawn) | 109 °C |
| S=C=Nc1c(Cl)cccc1Cl | 43 °C |
| CCn1cc(C(=O)O)c(=O)c2cnc(N3CCCC3)nc21 | 315 °C |
| NC(=O)NC(CC(=O)O)C(=O)O (racemic) | 174 to 175 °C |

| SMILES | melting point |
| --- | --- |
| ClCc1nc(-c2cccs2)no1 | 59 to 60 °C |
| Cc1cc(C(F)(F)F)c2c(N)c(C#N)sc2n1 | 182 to 184 °C |
| O=Cc1ccc(SC2CCCCC2)c([N+](=O)[O-])c1 | 94 to 96 °C |
| O=[N+]([O-])c1cc([N+](=O)[O-])c(Nc2ccc3c(c2)OCCOCCOCCOCCO3)c(C(F)(F)F)c1 | 171 °C |
| COc1cc(C(N)=O)cc(Cl)n1 | 186 °C |
| OCC(O)C(O)C(O)C(O)CO (stereo not drawn) | 190 °C |
| Cc1cc(Cc2cc(C)cc(C3(C)CCCCC3)c2O)c(O)c(C2(C)CCCCC2)c1 | 135 °C |
| COC1CCC(C2C(=O)NC(=O)NC2=O)CC1 (stereo not drawn) | 215 °C |
| CN(C)C(=O)[C@@H]1OC(C)(C)O[C@H]1C(=O)N(C)C | 88 to 91 °C |
| NC(=O)C12CCN(CC1)CC2 | 235 to 237 °C |
| CC1=C(O)C(=O)C(C)O1 (stereo not drawn) | 80.5 °C |
| Oc1cc(C(F)(F)F)ccn1 | 159 °C |
| CCOC(C/N=C/c1ccc(/C=N/CC(OCC)OCC)c([N+](=O)[O-])c1)OCC | 38 °C |
| CC1CCC(C(C)C)/C(=N\NC(N)=O)C1 (stereo not drawn) | 216 to 217 °C |
| O=[N+]([O-])c1ccc(Cl)cc1CO | 77 to 82 °C |
| Cc1ncc(CSSCc2cnc(C)c(O)c2CO)c(CO)c1O | 219 °C |
| CC(CC/C(=N/O)C(C)C)CC(=O)O (stereo not drawn) | 186 to 187 °C |
| CCOc1ccc2[nH]c(S)nc2c1 | 249 °C |
| O=C(O)C=Cc1c(F)c(F)c(F)c(F)c1F | 153 °C |
| CCOC(=O)CCCCCCCCCCCCCCCCC(=O)OCC | 54.5 °C |
| NC(=O)[C@@H]1CCCN1 | 97 to 102 °C |
| CC(C)C1C(=O)NC(=O)NC1=O | 214 °C |

— a melting point compilation (Tetko et al.)
